In article PMC12864978, “Covalent modification of a glutamic acid inspired by HaloTag technology” (Nature Communications, 2026):

What was measured:
PDEδ = PDEδ (Homo sapiens, UniProt O43924); test: Mass spectrometry analysis of PDEδ adducts after Glu-C digestion; type: binding; set-up: His tag; made in house; host or cells: Escherichia coli Rosetta (BL21DE3), pET plasmids; settings: LC-MS/MS, 10:1 compound to protein
Experimental: For each replicate, 1.5 µg covalent adduct of PDEδ sample in PBS buffer was denatured, reduced, alkylated and digested by Glu-C and desalted, together with a negative control of unbound vehicle-treated PDEδ sample prior to mass spectrometry analysis. […] The final mixture containing 6.5 M guanidine hydrochloride was heated at 95 °C for 15 min. Subsequently, after cooling, 0.5 µl of a 50 mM dithiothreitol (DTT, cas 3483-12-3, Gerbu Biotechnik, #1008-100 g) solution was added. […] . Samples were incubated at 37 °C overnight with shaking at 400 rpm, protected from light. […] Desalting was carried out with stage tips with C18 extraction discs (Empore^TM high performance extraction discs, 47 mm, 3 M Bioanalytical Technologies #2215). Each stage tip, which consists of two stacked layers of C18 discs, was activated with methanol (100 µl), washed once with buffer B (100 µl, 0.1% formic acid, 80% acetonitrile), and twice with buffer A (100 µl/time, 0.1% formic acid). After sample loading and washing with buffer A once, the desalted sample was eluted with buffer B (20 µl/sample) and centrifuged at 500×g at room temperature for 5 min. Eluted samples were then dried in a SpeedVac at 30 °C.
Data evaluation was performed using MaxQuant software (v.2.2.0.0)[52]. […] Cleavages by Glu-C were analysed based on the enzyme that was used for digestion. […]

[1] = molecular target: Jurkat cell lysate proteome (Homo sapiens, UniProt O43924); test: In-lysate thermal proteome profiling (TPP); settings: 10 µM, 15 min
Jurkat cell lysate proteome (Homo sapiens, UniProt O43924), sequence (O43924 whole entry): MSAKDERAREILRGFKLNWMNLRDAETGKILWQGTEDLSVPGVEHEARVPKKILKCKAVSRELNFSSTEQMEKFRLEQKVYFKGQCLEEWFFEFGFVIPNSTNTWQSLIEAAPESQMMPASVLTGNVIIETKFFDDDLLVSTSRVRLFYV
Experimental: (§1) Jurkat cells were grown to a density of 1.0–2.5 × 10⁶ cells/ml. A 100 ml aliquot of the suspension was divided equally into two Falcon tubes and chilled on ice for 2 min. Cells were pelleted by centrifugation at 350×g for 3 min at room temperature. After discarding the supernatant, the combined pellet was resuspended in 25 ml of ice-cold PBS buffer. The washing step—centrifugation at 350×g for 2 min at room temperature, followed by supernatant removal—was further repeated twice. Following the final wash, the cell pellet was resuspended in 1.5 ml of PBS containing 0.4% (v/v) NP40 alternative and flash-frozen in liquid nitrogen. […] The resulting lysate was separated by ultracentrifugation at 100,000×g for 20 min at 4 °C (Beckman Coulter Optima MAX-XP, MLA-80 rotor). The supernatant was carefully collected, snap-frozen in liquid nitrogen, and stored at −80 °C for subsequent analysis.
(§2) Protein concentration was quantified using the Bradford protein assay. […] Following incubation, each aliquot was further subdivided into nine 120 µl portions in PCR tubes. […] For analysis, 75 µl of each supernatant was allocated for mass spectrometry-based thermal protein profiling (TPP), while the remaining 25 µl was used for immunoblotting to assess PDEδ levels.
(§3) For mass spectrometric analysis, sample processing was further proceeded with reduction and alkylation, followed by acetone precipitation and tryptic digestion. Each digested aliquot was then labelled with isobaric TMT reagents (Thermo Fisher Scientific, A52047) corresponding to its specific temperature condition from the thermal shift assay.
(§4) Proteins were considered as stabilised or destabilised when, in all three replicates,
(§5) tailed p-values were determined by applying paired t-test comparing AUC of melting curves
(§6) between DMSO-treated and compound-treated conditions, OR
(§7) least ± 10 % (same direction) compared to the DMSO control.

[2] = molecular target: T1, Jurkat cell lysate proteome (Homo sapiens, UniProt Q16854); test: In-lysate thermal proteome profiling (TPP)
T1 sequence (Q16854 40-277): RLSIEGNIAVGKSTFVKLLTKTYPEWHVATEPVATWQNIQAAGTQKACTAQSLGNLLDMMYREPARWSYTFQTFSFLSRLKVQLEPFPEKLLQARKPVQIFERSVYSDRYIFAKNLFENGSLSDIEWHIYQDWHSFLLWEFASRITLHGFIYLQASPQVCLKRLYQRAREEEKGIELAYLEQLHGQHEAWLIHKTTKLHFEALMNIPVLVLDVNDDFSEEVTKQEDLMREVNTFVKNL
Experimental: as §1, §2, §3, §4, §5, §6, §7

[3] = molecular target: T2, Jurkat cell lysate proteome (Homo sapiens, UniProt P22087); test: In-lysate thermal proteome profiling (TPP)
T2 sequence (P22087 1-321): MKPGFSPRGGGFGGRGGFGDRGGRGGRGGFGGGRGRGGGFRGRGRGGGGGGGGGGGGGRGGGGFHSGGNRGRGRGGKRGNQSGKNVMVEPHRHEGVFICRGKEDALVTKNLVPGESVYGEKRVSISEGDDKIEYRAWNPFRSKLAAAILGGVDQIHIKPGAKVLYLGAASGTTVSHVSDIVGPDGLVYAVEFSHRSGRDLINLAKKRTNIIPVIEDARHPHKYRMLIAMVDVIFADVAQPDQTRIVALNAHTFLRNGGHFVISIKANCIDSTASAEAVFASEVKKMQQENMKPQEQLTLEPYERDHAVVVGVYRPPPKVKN
Experimental: as §1, §2, §3, §4, §5, §6, §7

[4] = molecular target: Jurkat cell lysate proteome (Homo sapiens, UniProt P36404); test: In-lysate thermal proteome profiling (TPP)
Jurkat cell lysate proteome (Homo sapiens, UniProt P36404), sequence (P36404 whole entry): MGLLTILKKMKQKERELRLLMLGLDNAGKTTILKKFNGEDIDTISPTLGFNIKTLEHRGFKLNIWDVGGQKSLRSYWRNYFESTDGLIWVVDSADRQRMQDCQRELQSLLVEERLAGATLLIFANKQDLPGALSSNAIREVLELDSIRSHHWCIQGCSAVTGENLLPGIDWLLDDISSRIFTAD
Experimental: as §1, §2, §3, §4, §5, §6, §7

[5] = molecular target: Jurkat cell lysate proteome (Homo sapiens, UniProt P37802); test: In-lysate thermal proteome profiling (TPP)
Jurkat cell lysate proteome (Homo sapiens, UniProt P37802), sequence (P37802 whole entry): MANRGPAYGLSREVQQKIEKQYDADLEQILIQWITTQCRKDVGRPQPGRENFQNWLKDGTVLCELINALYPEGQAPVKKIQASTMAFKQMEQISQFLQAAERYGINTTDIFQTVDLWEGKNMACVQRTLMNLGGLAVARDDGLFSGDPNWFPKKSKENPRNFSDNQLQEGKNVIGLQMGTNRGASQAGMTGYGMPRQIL
Experimental: as §1, §2, §3, §4, §5, §6, §7

[6] = molecular target: Jurkat cell lysate proteome (Homo sapiens, UniProt P62899); test: In-lysate thermal proteome profiling (TPP)
Experimental: as §1, §2, §3, §4, §5, §6, §7

[7] = molecular target: Jurkat cell lysate proteome (Homo sapiens, UniProt P56134); test: In-lysate thermal proteome profiling (TPP)
Jurkat cell lysate proteome (Homo sapiens, UniProt P56134), sequence (P56134 whole entry): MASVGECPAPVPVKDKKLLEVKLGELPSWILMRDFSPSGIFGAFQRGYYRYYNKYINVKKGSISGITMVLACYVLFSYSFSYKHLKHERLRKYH
Experimental: as §1, §2, §3, §4, §5, §6, §7

[8] = molecular target: T3, Jurkat cell lysate proteome (Homo sapiens, UniProt O95628); test: In-lysate thermal proteome profiling (TPP)
T3 sequence (O95628 1-575): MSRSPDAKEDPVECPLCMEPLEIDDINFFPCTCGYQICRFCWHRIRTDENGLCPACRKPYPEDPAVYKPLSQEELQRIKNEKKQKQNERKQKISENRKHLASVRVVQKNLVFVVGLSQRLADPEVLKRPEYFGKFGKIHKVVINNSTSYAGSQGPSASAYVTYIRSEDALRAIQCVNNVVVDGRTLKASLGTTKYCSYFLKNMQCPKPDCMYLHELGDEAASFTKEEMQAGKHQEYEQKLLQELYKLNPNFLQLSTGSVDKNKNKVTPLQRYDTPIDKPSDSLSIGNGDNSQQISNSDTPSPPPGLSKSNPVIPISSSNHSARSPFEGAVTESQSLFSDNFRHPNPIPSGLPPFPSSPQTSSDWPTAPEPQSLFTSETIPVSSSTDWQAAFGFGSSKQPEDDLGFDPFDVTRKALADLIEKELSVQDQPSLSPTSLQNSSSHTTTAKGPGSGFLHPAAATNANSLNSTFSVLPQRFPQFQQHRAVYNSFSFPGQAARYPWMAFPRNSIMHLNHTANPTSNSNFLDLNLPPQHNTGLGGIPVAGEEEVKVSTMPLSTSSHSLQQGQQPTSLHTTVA
Experimental: as §1, §2, §3, §4, §5, §6, §7

[9] = molecular target: Jurkat cell lysate proteome (Homo sapiens, UniProt P07195); test: In-lysate thermal proteome profiling (TPP)
Jurkat cell lysate proteome (Homo sapiens, UniProt P07195), sequence (P07195 whole entry): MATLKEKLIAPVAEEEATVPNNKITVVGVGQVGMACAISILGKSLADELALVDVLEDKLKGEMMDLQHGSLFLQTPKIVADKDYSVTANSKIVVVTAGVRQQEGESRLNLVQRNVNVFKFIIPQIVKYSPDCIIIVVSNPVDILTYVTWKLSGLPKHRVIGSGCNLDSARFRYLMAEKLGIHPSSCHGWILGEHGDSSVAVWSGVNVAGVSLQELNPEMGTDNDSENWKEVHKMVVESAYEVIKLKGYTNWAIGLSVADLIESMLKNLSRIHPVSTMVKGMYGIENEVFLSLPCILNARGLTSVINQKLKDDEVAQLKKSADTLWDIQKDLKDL
Experimental: as §1, §2, §3, §4, §5, §6, §7

[10] = molecular target: Jurkat cell lysate proteome (Homo sapiens, UniProt Q9H583); test: In-lysate thermal proteome profiling (TPP)
Jurkat cell lysate proteome (Homo sapiens, UniProt Q9H583), sequence (Q9H583 whole entry): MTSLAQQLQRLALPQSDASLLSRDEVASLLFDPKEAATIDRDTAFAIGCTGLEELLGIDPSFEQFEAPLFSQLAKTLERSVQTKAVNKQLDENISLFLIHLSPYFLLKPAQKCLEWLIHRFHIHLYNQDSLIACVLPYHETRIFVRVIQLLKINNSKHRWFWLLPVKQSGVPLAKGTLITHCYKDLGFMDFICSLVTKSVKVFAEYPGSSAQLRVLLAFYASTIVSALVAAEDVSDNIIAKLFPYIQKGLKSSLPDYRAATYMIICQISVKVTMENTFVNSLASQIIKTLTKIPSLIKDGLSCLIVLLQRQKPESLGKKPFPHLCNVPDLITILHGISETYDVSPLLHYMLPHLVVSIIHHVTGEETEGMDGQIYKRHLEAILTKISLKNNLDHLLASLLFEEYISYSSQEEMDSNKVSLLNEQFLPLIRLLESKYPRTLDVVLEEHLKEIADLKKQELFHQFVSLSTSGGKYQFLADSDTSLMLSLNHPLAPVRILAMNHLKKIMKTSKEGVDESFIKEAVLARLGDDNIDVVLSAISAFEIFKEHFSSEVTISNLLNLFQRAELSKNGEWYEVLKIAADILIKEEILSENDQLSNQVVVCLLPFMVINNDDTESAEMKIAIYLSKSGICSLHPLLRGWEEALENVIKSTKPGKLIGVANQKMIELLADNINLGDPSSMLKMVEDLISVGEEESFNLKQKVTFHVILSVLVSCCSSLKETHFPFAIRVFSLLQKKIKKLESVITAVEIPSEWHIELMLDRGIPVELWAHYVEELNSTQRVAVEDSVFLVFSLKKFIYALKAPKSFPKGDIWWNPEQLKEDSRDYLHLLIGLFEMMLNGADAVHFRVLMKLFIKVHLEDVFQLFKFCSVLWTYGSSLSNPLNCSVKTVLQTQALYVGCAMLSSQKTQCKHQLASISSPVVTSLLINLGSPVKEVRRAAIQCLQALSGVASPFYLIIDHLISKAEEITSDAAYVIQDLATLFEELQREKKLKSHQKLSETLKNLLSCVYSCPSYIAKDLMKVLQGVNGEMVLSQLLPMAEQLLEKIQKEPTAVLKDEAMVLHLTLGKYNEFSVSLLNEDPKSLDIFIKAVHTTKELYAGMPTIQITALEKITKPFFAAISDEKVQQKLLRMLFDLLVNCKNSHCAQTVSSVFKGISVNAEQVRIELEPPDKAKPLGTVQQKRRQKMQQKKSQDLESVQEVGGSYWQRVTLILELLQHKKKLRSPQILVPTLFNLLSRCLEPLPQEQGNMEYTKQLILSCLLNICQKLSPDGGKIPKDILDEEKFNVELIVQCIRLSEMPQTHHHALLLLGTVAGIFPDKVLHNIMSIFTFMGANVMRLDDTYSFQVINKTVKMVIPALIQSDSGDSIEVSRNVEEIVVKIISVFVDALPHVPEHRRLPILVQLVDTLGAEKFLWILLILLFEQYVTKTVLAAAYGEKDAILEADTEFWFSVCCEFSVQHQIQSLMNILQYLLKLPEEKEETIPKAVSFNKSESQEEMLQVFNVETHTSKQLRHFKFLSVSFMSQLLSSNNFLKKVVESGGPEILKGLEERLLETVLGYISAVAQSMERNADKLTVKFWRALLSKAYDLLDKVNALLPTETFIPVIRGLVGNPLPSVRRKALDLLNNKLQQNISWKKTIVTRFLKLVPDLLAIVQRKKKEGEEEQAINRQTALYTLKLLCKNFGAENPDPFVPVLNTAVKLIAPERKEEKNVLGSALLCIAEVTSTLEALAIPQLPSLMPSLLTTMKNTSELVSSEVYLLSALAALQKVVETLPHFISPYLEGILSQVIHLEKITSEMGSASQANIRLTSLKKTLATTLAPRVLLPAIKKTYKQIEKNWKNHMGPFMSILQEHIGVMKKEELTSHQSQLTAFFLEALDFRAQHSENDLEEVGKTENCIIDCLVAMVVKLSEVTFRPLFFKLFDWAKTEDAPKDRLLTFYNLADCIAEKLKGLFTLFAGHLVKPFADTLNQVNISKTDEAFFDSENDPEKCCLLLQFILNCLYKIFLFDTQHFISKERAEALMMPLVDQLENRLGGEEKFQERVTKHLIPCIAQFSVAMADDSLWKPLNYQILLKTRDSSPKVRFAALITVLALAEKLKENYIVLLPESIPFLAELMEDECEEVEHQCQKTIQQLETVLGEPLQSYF
Experimental: as §1, §2, §3, §4, §5, §6, §7

PDEδ, sequence (O43924 whole entry): as the sequence (O43924 whole entry) above

Compound: Cc1ccc(-n2nc3c(=O)n(CCCCS(=O)(=O)N(CCc4cccc(CCBr)c4)CC4CCNCC4)nc(C)c3c2C)cc1 [6a]
- site of covalent modification in PDEδ (PDEδ): either at p.E88 or p.E89
- ΔI67°C PDE6D [1]: 21 ± 7%
- ΔAUC DGUOK ([2]; 10 µM, 15 min): -2.3
- ΔI67°C DGUOK ([2]; 10 µM, 15 min): 0 ± 2%
- ΔTm at 10 µM ([2]; read-out: ΔTm DGUOK, 10 µM, 15 min): -2.9 ± 1.9 °C
- ΔAUC FBL ([3]; 10 µM, 15 min): -1.8
- ΔI67°C FBL ([3]; 10 µM, 15 min): -1 ± 2%
- ΔTm at 10 µM ([3]; read-out: ΔTm FBL, 10 µM, 15 min): -1.8 ± 1.1 °C
- ΔAUC Arl2 ([4]; 10 µM, 15 min): 0.97
- ΔTm at 10 µM ([4]; read-out: ΔTm Arl2, 10 µM, 15 min): -0.92 °C
- ΔAUC TAGLN2 ([5]; 10 µM, 15 min): 1.4
- ΔI67°C TAGLN2 ([5]; 10 µM, 15 min): -5 ± 9%
- ΔTm at 10 µM ([5]; read-out: ΔTm TAGLN2, 10 µM, 15 min): 2.8 ± 0.7 °C
- ΔAUC RPL31 ([6]; 10 µM, 15 min): -2.5
- ΔI67°C RPL31 ([6]; 10 µM, 15 min): -6 ± 5%
- ΔTm at 10 µM ([6]; read-out: ΔTm RPL31, 10 µM, 15 min): -2.1 ± 0.6 °C
- ΔI67°C ATP5J2 ([7]; 10 µM, 15 min): 1 ± 1%
- ΔTm at 10 µM ([7]; read-out: ΔTm ATP5J2, 10 µM, 15 min): -2 ± 1 °C
- ΔAUC CNOT4 ([8]; 10 µM, 15 min): -1.7
- ΔI67°C CNOT4 ([8]; 10 µM, 15 min): 0 ± 3%
- ΔTm at 10 µM ([8]; read-out: ΔTm CNOT4, 10 µM, 15 min): -2.7 ± 1 °C
- ΔAUC LDHB ([9]; 10 µM, 15 min): -1.8
- ΔI67°C LDHB ([9]; 10 µM, 15 min): -1 ± 4%
- ΔTm at 10 µM ([9]; read-out: ΔTm LDHB, 10 µM, 15 min): -2.9 ± 0.7 °C
- ΔAUC HEATR1 ([10]; 10 µM, 15 min): -2.9
- ΔI67°C HEATR1 ([10]; 10 µM, 15 min): -8 ± 6%
- ΔTm at 10 µM ([10]; read-out: ΔTm HEATR1, 10 µM, 15 min): -2.8 ± 1.1 °C
